33 compounds from ChEMBL document CHEMBL1122006, “Comparison of quantitative structure-activity relationships of the inhibition of leukemia cells in culture with the inhibition of dihydrofolate reductase from leukemia cells and other cell types” (1982) can be followed below.

For the experiment, the system named is L5178Y. The experiment in a line: Concentration required for inhibition of murine leukemia L5178Y cells. The format is functional, Mus musculus.
For `CCCCCCCCCCCCOc1cccc(N2C(N)=NC(N)=NC2(C)C)c1`, the “Log 1/C” value was determined as 6.41.

Turning to `CC1(C)N=C(N)N=C(N)N1c1cccc(Br)c1`, the “Log 1/C” value is reported as 8.42.

Regarding `CC1(C)N=C(N)N=C(N)N1c1cccc(COc2cccc(C#N)c2)c1`, the “Log 1/C” value is reported as 8.09.

As for `CC1(C)N=C(N)N=C(N)N1c1cccc(OCCOc2cccc(C(F)(F)F)c2)c1`, the “Log 1/C” value was determined as 7.37.

Regarding `CCOC(=O)c1cccc(N2C(N)=NC(N)=NC2(C)C)c1`, the “Log 1/C” value was 8.13.

For the compound `Cc1cccc(OCc2cccc(N3C(N)=NC(N)=NC3(C)C)c2)c1`, the “Log 1/C” value was 8.16.

Turning to `CC(=O)Nc1cccc(OCc2cccc(N3C(N)=NC(N)=NC3(C)C)c2)c1`, the “Log 1/C” value was found to be 8.66.

With `CC1(C)N=C(N)N=C(N)N1c1cccc(OCc2ccccc2)c1`, the “Log 1/C” value stood at 7.78.

As for `CC1(C)N=C(N)N=C(N)N1c1cccc(OCc2ccc(Cl)c(Cl)c2)c1`, the “Log 1/C” value was 7.15.

With `CC1(C)N=C(N)N=C(N)N1c1cccc(F)c1`, the “Log 1/C” value is 7.94.

Regarding `CC1(C)N=C(N)N=C(N)N1c1cccc(C(N)=O)c1`, the “Log 1/C” value came out at 6.1.

Take `CC1(C)N=C(N)N=C(N)N1c1cccc(OCCOc2ccccc2)c1`: the “Log 1/C” value worked out at 7.34.

On to `CC(C)(C)c1cccc(N2C(N)=NC(N)=NC2(C)C)c1`, for which the “Log 1/C” value amounted to 7.59.

With `CCCCCCCCCOc1cccc(N2C(N)=NC(N)=NC2(C)C)c1`, the “Log 1/C” value is reported as 6.93.

With `Cc1cccc(N2C(N)=NC(N)=NC2(C)C)c1`, the “Log 1/C” value stood at 8.01.

Consider `COc1cccc(OCc2cccc(N3C(N)=NC(N)=NC3(C)C)c2)c1`, for which the “Log 1/C” value amounted to 8.02.

Regarding `CC1(C)N=C(N)N=C(N)N1c1cccc(I)c1`, the “Log 1/C” value came out at 8.4.

As for `CCc1cccc(OCc2cccc(N3C(N)=NC(N)=NC3(C)C)c2)c1`, the “Log 1/C” value is on record as 8.11.

`CC1(C)N=C(N)N=C(N)N1c1cccc(COc2ccccc2)c1`: the “Log 1/C” value is given as 8.2.

On to `CC1(C)N=C(N)N=C(N)N1c1cccc(OCCCCOc2ccccc2)c1`, for which the “Log 1/C” value is listed as 6.97.

Take `CC1(C)N=C(N)N=C(N)N1c1cccc([N+](=O)[O-])c1`: the “Log 1/C” value amounted to 7.66.

Take `CC1(C)N=C(N)N=C(N)N1c1cccc(COc2cccc(Cl)c2)c1`: the “Log 1/C” value is 8.1.

Consider `CC1(C)N=C(N)N=C(N)N1c1cccc(COc2cccc(NC(=N)S)c2)c1`, for which the “Log 1/C” value was 8.08.

Take `CC(=O)c1cccc(N2C(N)=NC(N)=NC2(C)C)c1`: the “Log 1/C” value was found to be 6.96.

With `CC1(C)N=C(N)N=C(N)N1c1cccc(C(O)c2ccccc2)c1` (stereo not drawn), the “Log 1/C” value is reported as 6.41.

For `CC1(C)N=C(N)N=C(N)N1c1cccc(COc2cccc(CO)c2)c1`, the “Log 1/C” value is 8.32.

Take `CC1(C)N=C(N)N=C(N)N1c1ccc(OCc2cccc(C(N)=O)c2)c(Cl)c1`: the “Log 1/C” value was determined as 7.53.

Regarding `CC1(C)N=C(N)N=C(N)N1c1cccc(CNc2cc(C(N)=O)cc(C(N)=O)c2)c1`, the “Log 1/C” value is 7.01.

As to `CC1(C)N=C(N)N=C(N)N1c1cccc(OCCCCOc2cccc(C(F)(F)F)c2)c1`, the “Log 1/C” value is 7.14.

Consider `CC(C)(C)c1cccc(OCc2cccc(N3C(N)=NC(N)=NC3(C)C)c2)c1`, for which the “Log 1/C” value is 7.3.

With `CC1(C)N=C(N)N=C(N)N1c1cccc(COc2cccc(NC(N)=O)c2)c1`, the “Log 1/C” value came to 8.18.

For the compound `CN(Cc1cnc2nc(N)nc(N)c2n1)c1ccc(C(=O)N[C@@H](CCC(=O)O)C(=O)O)cc1` [METHOTREXATE], the “Log 1/C” value was found to be 8.89.

`CC(C)c1cccc(OCc2cccc(N3C(N)=NC(N)=NC3(C)C)c2)c1`: the “Log 1/C” value is recorded as 8.13.
